ChEMBL document CHEMBL3045161, “Evaluation of fungicides and biocontrol agents against grey blight disease of tea in the field” (2008)
The source made the active and inactive calls. The rule behind the calls is not given here.

Key:
[1] = test system: Pseudopestalotiopsis theae; assay: Fungicidal activity against Pestalotiopsis theae infested tea plant in nursery assessed as reduction in plant casuality at 5 % sprayed on topsoil measured after 90 days; type: functional, organism-based
[2] = test system: Pseudopestalotiopsis theae; assay: Fungicidal activity against Pestalotiopsis theae infested tea plant in nursery assessed as reduction in plant casuality at 0.05 % sprayed on topsoil measured after 90 days (reference value: 58 %); type: functional; parameters: scale not given: the % may be the effect or the level left
[3] = test system: Pseudopestalotiopsis theae; assay: Fungicidal activity against grey blight disease-causing Pestalotiopsis theae infested tea plantation assessed as green leaf yield which made tea at 0.05 % applied as foliar spray (reference value: 2884 kg/ha ); type: functional
[4] = test system: Pseudopestalotiopsis theae; assay: Fungicidal activity against grey blight disease-causing Pestalotiopsis theae infested tea plantation assessed as disease incidence at 0.05 % applied as foliar spray (reference value: 39.2 %); type: functional
[5] = test system: Pseudopestalotiopsis theae; assay: Fungicidal activity against grey blight disease-causing Pestalotiopsis theae infested tea plantation assessed as green leaf yield which made tea compound applied on shears during hravesting (reference value: 3044 kg/ha); type: functional
[6] = test system: Pseudopestalotiopsis theae; assay: Fungicidal activity against grey blight disease-causing Pestalotiopsis theae infested tea plantation assessed as disease incidence compound applied on shears during hravesting (reference value: 47 %); type: functional
[7] = test system: Pseudopestalotiopsis theae; assay: Fungicidal activity against Pestalotiopsis theae infested tea plant in nursery assessed as reduction in plant casuality at 3 % sprayed on topsoil measured after 90 days; type: functional, organism-based

## COC(=O)Nc1nc2ccccc2[nH]1 [CARBENDAZIM]
[1]
  Activity: Active
[2]
  Activity: 5%
[3]
  Crop_yield: 3845 kg/ha
[4]
  Activity: 6.6%

## COC(=O)NC(=S)Nc1ccccc1NC(=S)NC(=O)OC [THIOPHANATE METHYL]
[5]
  Crop_yield: 3457 kg/ha
[6]
  Activity: 17.5%
[7]
  Activity: Active
[2]
  Activity: 3%
[3]
  Crop_yield: 3886 kg/ha
[4]
  Activity: 5.6%
